Experimental data taken from US20250361240A1, “PYRANOPYRIDINE COMPOUND, PROCESS FOR PREPARING THE SAME, PHARMACEUTICAL COMPOSITION AND USE THEREOF” (Zhejiang Yangli Pharmaceutical Technology Co., Ltd., priority 2024, published 2025).

Columns and labels:
CYP3A-M = CYP3A-M (Homo sapiens, UniProt P08684); assay: In vitro inhibitory activity against common CYP450 enzymes: CYP3A (midazolam); type: in vitro ADME; conditions: microsomes, substrate Midazolam
Method: (§1) A working solution of the test compound was prepared in a solvent of dimethyl sulfoxide (DMSO) (starting at a final concentration of 50 μM, 3-fold dilution of 7 concentration points). The corresponding microsomes (CORNING, Cat No.452117) and the corresponding substrate solution were prepared (components were shown in Table 2). The working solution of the test compound and the corresponding microsomes were mixed with the corresponding substrate solution and the HLM working solution. The mixture was preheated in a 37.0° C. water bath for 10 min. NADPH cofactor (BONTAC, Cat No.BT04) was added. The resultant mixture was incubated for 10 min in a 37.0° C. water bath. The reaction was terminated by adding cold stop solution. [table] [table] The sample was centrifuged at 4000 rpm for 20 min to precipitate protein and the supernatant was transferred to HPLC water and shaken for 10 min.

human CYP11B1 = human CYP11B1 (Homo sapiens (Human), UniProt P15538); assay: Inhibitory activity against hCYP11B1 in G-402 CYP11B1 high expression stable transformants (cortisol HTRF); type: cell-based; conditions: G-402 CYP11B1 cells, 0.2 μM 11-deoxycortisol, 16 hours; read-out: hCYP11B1 Abs IC50
human CYP11B1, sequence (P15538 25-503): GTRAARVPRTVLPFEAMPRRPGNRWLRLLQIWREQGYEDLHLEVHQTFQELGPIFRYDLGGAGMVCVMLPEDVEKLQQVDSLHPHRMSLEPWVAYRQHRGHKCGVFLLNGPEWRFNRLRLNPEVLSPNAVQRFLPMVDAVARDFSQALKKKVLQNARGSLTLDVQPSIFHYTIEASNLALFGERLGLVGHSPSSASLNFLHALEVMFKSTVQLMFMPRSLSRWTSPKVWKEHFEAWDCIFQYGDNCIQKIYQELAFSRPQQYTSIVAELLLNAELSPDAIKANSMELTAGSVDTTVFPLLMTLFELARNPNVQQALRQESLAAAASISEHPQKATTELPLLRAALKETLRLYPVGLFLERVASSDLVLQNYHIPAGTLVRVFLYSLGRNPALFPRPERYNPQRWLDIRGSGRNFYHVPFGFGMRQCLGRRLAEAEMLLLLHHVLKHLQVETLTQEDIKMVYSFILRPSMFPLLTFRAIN
Method: (§2) 1. Experimental System: G-402 CYP11B2 or CYP11B1 High Expression Stable Transformants
(§3) The above-mentioned high-expression stable transformants were constructed based on human […] cell line G-402. The artificial lentiviruses were introduced into human CYP11B2 (NM_000498.3) and CYP11B1 (NM_000497.4), respectively.
(§4) Maintenance medium: McCoy's 5A (modified, #16600082, GIBCO)+10% FBS (GIBCO)+1 μg/mL puromycin (A1113803, GIBCO).
(§5) Resuscitation and seeding medium: McCoy's 5A (modified, #16600082, GIBCO)+10% FBS (GIBCO).
(§6) Reaction medium: DMEM/F12 (#11320033, GIBCO)+2.5% activated charcoal filtered FBS (S11695, R & D).
(§7) Seeding: Cells were cultured to a suitable state after resuscitation with maintenance medium, and 96-well flat plates were seeded with seeding medium according to 1×10^4/100 μL/well (unified cell volume).
(§8) Changing solution: The supernatant was aspirated and discarded after seeding overnight (>12 hours) and adherence. 100-150 μL/well serum-free medium was added, and after being aspirated. After aspiration, 50 μL/well reaction medium was added for later use.
(§9) Formulation: Compound was diluted with reaction medium containing 0.4 μM substrate (final experimental concentration is 0.2 μM):
CYP11B1 substrate: 11-deoxycortisol (11-deoxycortisol, S4775, selleckchem). The final reaction concentration was 0.2 μM.
(§10) Loading: The above compound dilutions were added to the cell plates at 50 μL/well. The background and control wells were set.
(§11) Treating and sampling: The cell plates were incubated in a cell incubator for 16 hours after loading, and then each cell plate was centrifuged at 450 g for 2 min. 75 μL supernatant was transferred to a collection plate and frozen at −80° C. for future use (or direct detection).
(§12) Detection: Homogeneous time-resolved fluorescence kit (Cisbio HTRF kit, Cat.64ALDPEG, Cat.62CRTPEG) was used to determine the concentration of aldosterone or cortisol in the supernatant.
(§13) Analysis: The absolute IC50 (Abs IC50) for each compound was calculated using a four parameter fit.

CYP2D6 = CYP2D6 (Homo sapiens (Human), UniProt P10635); assay: In vitro inhibitory activity against common CYP450 enzymes: CYP2D6; type: in vitro ADME; conditions: microsomes, substrate Dextromethorphan
CYP2D6, sequence (P10635 whole entry): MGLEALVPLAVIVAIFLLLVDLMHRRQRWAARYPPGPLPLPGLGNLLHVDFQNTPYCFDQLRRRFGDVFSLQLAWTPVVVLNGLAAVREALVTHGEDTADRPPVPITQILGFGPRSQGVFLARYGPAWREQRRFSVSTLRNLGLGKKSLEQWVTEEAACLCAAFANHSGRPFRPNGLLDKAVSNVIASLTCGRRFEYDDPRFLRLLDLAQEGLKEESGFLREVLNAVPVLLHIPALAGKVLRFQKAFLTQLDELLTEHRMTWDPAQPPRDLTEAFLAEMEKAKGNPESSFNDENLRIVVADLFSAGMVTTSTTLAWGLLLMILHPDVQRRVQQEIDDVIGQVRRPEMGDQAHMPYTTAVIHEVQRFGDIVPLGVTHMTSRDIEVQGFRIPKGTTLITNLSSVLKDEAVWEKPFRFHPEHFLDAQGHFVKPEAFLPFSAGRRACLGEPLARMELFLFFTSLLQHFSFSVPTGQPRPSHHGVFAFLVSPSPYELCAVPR
Method: as §1

CYP2C9 = CYP2C9 (Homo sapiens (Human), UniProt P11712); assay: In vitro inhibitory activity against common CYP450 enzymes: CYP2C9; type: in vitro ADME; conditions: microsomes, substrate Diclofenac
CYP2C9, sequence (P11712 whole entry): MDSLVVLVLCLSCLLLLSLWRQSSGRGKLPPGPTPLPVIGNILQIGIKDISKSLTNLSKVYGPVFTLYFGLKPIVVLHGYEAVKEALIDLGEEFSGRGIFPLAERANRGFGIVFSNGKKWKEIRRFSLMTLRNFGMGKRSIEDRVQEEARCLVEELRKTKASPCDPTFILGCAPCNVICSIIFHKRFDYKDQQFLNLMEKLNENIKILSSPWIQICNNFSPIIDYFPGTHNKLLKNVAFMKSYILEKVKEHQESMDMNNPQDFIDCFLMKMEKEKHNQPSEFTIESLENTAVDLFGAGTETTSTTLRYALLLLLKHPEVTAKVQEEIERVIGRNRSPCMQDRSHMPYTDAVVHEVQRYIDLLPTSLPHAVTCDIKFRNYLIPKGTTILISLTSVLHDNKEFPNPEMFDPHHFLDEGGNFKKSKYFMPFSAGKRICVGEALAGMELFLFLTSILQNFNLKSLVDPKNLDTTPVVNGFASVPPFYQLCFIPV
Method: as §1

aldosterone synthesis = assay: Pharmacodynamic test in cynomolgus monkeys with ACTH stimulation: aldosterone in plasma; type: in vivo, cynomolgus monkeys (Macaca fascicularis); conditions: 0.5 mg/kg oral
Description: (§14) Adult cynomolgus monkeys (Macaca fascicularis) with suitable body weight and age were selected. 1 male and 1 female cynomolgus monkeys were used for experiment. The adaptation period was 1 week. On the day of the experiment, monkeys were individually housed in stainless steel mesh cages for testing.
(§15) Oral treatment and ACTH working solution (working solution diluted to the desired concentration in PBS sterile solution by ultrapure water filtration through a 0.22 μm filter using Tetracosactrin (HY-P0060, MCE)) were administered as follows: • T=0, 2 monkeys in each group were orally administered 0.5 mg/kg (compound was suspended in 5% aqueous sodium hydroxymethylcellulose solution as vehicle) in a fixed volume of 2 mL/kg; • T=+1 hour (i.e., 1 hour after administration), 14.5 μg/kg of the aforementioned ACTH working solution was injected intramuscularly.
(§16) Sampling test: Blood samples (collected in EDTA anticoagulant tubes) were collected before oral administration (Pre-dose) and 0.5 h, 1 h, 2 h, 4 h, 6 h and 12 h after administration for cortisol concentration measurement in plasma. The blood was centrifuged at 10000 rpm for 15 minutes at 4° C., followed by separation of the plasma and uniform storage at −80° C. for further analysis using an Roche biochemical analyzer to detect aldosterone and cortisol in plasma, and a portion of the plasma (0.5 h, 1 h, 2 h, 4 h, 6 h, and 12 h after administration, and an additional blood collection after 24 h) was taken simultaneously to determine the pharmacokinetic parameters by LC/MS.
(§17) The above experiment was repeated except that: T=0, two monkeys in each group were orally administered at a dose of 0.05 mg/kg (compound was suspended in 5% aqueous sodium hydroxymethylcellulose as vehicle) in a fixed volume of 2 mL/kg.

[1] = Pharmacokinetic test in cynomolgus monkeys (LC/MS); type: in vivo, cynomolgus monkeys (Macaca fascicularis); conditions: both sexes, cynomolgus monkey, plasma, 0.5 mg/kg, 0.5mpk oral
Description: as §14, §15, §16, §17

cortisol levels = assay: Pharmacodynamic test in cynomolgus monkeys with ACTH stimulation: cortisol in plasma; type: in vivo, cynomolgus monkeys (Macaca fascicularis); conditions: 0.5 mg/kg oral
Description: as §14, §15, §16, §17

CYP1A2 = CYP1A2 (Homo sapiens (Human), UniProt P05177); assay: In vitro inhibitory activity against common CYP450 enzymes: CYP1A2; type: in vitro ADME; conditions: human, microsomes, 10 min
CYP1A2, sequence (P05177 whole entry): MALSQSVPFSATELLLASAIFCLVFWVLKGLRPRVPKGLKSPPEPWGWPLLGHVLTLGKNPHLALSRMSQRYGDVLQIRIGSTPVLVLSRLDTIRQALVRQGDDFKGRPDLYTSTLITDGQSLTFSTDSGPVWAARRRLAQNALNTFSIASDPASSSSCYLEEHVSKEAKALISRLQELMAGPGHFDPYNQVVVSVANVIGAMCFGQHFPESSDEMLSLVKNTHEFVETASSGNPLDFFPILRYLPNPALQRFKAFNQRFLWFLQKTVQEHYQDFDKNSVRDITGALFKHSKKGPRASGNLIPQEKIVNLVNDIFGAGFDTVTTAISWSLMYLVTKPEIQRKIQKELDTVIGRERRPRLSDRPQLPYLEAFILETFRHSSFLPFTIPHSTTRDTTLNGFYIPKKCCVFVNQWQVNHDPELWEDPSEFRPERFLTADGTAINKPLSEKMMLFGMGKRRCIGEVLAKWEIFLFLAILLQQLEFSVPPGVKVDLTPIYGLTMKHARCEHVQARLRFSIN
Method: as §1

human CYP11B2 = human CYP11B2 (Homo sapiens (Human), UniProt P19099); assay: Inhibitory activity against hCYP11B2 in G-402 CYP11B2 high expression stable transformants (aldosterone HTRF); type: cell-based
human CYP11B2, sequence (P19099 25-503): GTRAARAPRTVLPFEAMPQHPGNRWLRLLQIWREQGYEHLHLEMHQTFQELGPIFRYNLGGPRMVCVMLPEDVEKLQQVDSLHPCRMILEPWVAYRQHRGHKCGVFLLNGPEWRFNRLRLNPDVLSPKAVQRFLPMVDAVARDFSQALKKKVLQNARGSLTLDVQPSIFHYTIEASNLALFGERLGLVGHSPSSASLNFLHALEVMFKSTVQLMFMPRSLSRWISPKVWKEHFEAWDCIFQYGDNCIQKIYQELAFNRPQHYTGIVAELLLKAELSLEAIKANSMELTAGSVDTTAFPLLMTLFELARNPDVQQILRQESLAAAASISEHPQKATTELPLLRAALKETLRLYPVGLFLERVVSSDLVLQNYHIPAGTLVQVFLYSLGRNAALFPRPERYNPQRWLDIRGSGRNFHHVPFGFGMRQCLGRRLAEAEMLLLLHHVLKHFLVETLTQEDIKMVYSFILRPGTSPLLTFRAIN
Method: as §2, §3, §4, §5, §6, §7, §8, §9
CYP11B2 substrate: 11-deoxycorticosterone (11-deoxycorticosterone, S4243, selleckchem). The final reaction concentration was 0.2 μM
as §10, §11, §12, §13

CYP2C19 = CYP2C19 (Homo sapiens (Human), UniProt P33261); assay: In vitro inhibitory activity against common CYP450 enzymes: CYP2C19; type: in vitro ADME; conditions: microsomes, substrate (S)-(+)-Mephenytoin
CYP2C19, sequence (P33261 whole entry): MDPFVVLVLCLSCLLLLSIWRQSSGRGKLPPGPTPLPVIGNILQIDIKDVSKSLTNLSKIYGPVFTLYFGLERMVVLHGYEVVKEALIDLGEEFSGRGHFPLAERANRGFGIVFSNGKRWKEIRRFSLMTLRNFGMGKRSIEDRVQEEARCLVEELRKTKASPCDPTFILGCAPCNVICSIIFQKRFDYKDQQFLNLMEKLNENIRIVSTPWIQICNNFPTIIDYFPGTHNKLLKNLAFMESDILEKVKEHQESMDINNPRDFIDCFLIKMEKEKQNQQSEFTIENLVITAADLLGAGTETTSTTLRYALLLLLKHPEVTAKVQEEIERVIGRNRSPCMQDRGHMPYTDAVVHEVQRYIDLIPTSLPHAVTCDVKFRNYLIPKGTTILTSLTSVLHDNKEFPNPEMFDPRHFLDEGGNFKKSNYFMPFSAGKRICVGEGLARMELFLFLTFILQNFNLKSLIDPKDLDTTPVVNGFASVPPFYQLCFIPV
Method: as §1

CYP3A-M, sequence (P08684 2-503 limits assumed): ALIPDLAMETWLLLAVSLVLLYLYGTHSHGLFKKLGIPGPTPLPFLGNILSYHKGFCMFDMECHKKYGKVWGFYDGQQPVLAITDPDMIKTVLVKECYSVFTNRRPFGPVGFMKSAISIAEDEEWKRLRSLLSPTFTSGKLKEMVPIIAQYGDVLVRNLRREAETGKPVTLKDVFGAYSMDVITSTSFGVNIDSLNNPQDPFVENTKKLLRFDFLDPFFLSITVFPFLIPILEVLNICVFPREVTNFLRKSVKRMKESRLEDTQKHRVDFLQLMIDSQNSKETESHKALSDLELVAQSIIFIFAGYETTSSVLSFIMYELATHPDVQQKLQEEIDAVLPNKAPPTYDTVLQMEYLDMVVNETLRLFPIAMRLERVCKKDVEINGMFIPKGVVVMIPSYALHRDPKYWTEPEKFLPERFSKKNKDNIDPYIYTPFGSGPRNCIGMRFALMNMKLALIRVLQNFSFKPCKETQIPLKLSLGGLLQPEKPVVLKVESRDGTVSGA

CCC(=O)N[C@@H]1CCOc2c(-c3ccc4c(c3)CCC(=O)N4C)cncc21 [Example 1, (R)-N-(8-(1-methyl-2-oxo-1,2,3,4-tetrahydroquinolin-6-yl)-3,4-dihydro-2H-pyran[3,2-c]pyridin-4-yl)propanamide]
IC50 (CYP3A-M): > 50 µM
IC50 (human CYP11B1): 4.21 µM
IC50 (CYP2D6): > 50 µM
IC50 (CYP2C9): > 50 µM
Aldosterone Concentration in Plasma (aldosterone synthesis; 0.5 h): 859.25 pg/mL
Aldosterone Concentration in Plasma (aldosterone synthesis; 1 h (ACTH at +1 hour)): 358.37 pg/mL
Aldosterone Concentration in Plasma (aldosterone synthesis; 2 h): 122.85 pg/mL
Aldosterone Concentration in Plasma (aldosterone synthesis; 4 h): 90.51 pg/mL
Aldosterone Concentration in Plasma (aldosterone synthesis; 6 h): 90.39 pg/mL
Aldosterone Concentration in Plasma (aldosterone synthesis; 12 h): 89.42 pg/mL
Aldosterone Concentration in Plasma (aldosterone synthesis; Pre-dose): 222.84 pg/mL
Cmax [1]: 152 ng/mL
Tmax [1]: 2 h
half-life [1]: 9.09 h
AUC(0-t) ([1]; read-out: AUC0-24 h): 1960 ng·h/mL
Cortisol Concentration in Plasma (cortisol levels; 0.5 h): 1000.0 pg/mL
Cortisol Concentration in Plasma (cortisol levels; 1 h (ACTH at +1 hour)): 876.5 pg/mL
Cortisol Concentration in Plasma (cortisol levels; 2 h): 1180.0 pg/mL
Cortisol Concentration in Plasma (cortisol levels; 4 h): 602.7 pg/mL
Cortisol Concentration in Plasma (cortisol levels; 6 h): 476.3 pg/mL
Cortisol Concentration in Plasma (cortisol levels; 12 h): 377.3 pg/mL
Cortisol Concentration in Plasma (cortisol levels; Pre-dose): 699.3 pg/mL
IC50 (CYP1A2): > 50 µM
IC50 (human CYP11B2; G-402 CYP11B2 cells, 0.2 μM 11-deoxycorticosterone, 16 hours, read-out: hCYP11B2 (AS) Abs IC50): 0.0264 µM
hCYP11B ½ Selectivity Fold (human CYP11B2; hCYP11B1 IC50 relative to hCYP11B2 IC50): 159.64 Fold
IC50 (CYP2C19): > 50 µM
